molecular target: T1, mTOR (Homo sapiens, UniProt P42345); assay: In Vitro mTOR Kinase Assay (Echo), Test (a)(ii); format: biochemical; details: read-out: mTOR Kinase Assay (Echo)
T1 construct: FLAG; made in house
Source text: (a)(ii) In Vitro mTOR Kinase Assay (Echo)
The assay used AlphaScreen technology (Gray et al., Analytical Biochemistry, 2003, 313: 234-245) to determine the ability of test compounds to inhibit phosphorylation by recombinant mTOR.
A C-terminal truncation of mTOR encompassing amino acid residues 1362 to 2549 of mTOR (EMBL Accession No. L34075) was stably expressed as a FLAG-tagged fusion in HEK293 cells as described by Vilella-Bach et al., […], 1999, 274, 4266-4272. The HEK293 FLAG-tagged mTOR (1362-2549) stable cell line was routinely maintained at 37° C. with 5% CO2 up to a confluency of 70-90% in Dulbecco's modified Eagle's growth medium (DMEM; Invitrogen Limited, Paisley, UK Catalogue No. 41966-029) containing 10% heat-inactivated foetal calf serum (FCS; Sigma, Poole, Dorset, UK, Catalogue No. F0392), 1% L-glutamine (Gibco, Catalogue No. 25030-024) and 2 mg/ml Geneticin (G418 sulfate; Invitrogen Limited, UK Catalogue No. 1013 1-027). Following expression in the mammalian HEK293 cell line, expressed protein was purified using the FLAG epitope tag using standard purification techniques.
Aliquots (120 nl […]) of each compound dilution were acoustically dispensed placed using a Labcyte Echo 550 into a well of a Greiner 384-well low volume (LV) white polystyrene plate (Greiner Bio-one).
These assay solutions were incubated for 2 hours at room temperature.
Each reaction was stopped by the addition of […] of a mixture of EDTA (50 mM), bovine serum albumin (BSA; 0.5 mg/mL) and Tris-HCl pH 7.4 buffer (50 mM) containing p70 S6 Kinase (T389) 1A5 Monoclonal Antibody (Cell Signalling Technology, Catalogue No. 9206B) and AlphaScreen Streptavidin donor and Protein A acceptor beads (200 ng; Perkin Elmer, Catalogue No. 6760002B and 6760137R respectively) were added and the assay plates were left overnight at room temperature in the dark. The resultant signals arising from laser light excitation at 680 nm were read using a Packard Envision instrument.
The phosphorylated biotinylated peptide that is associated with AlphaScreen Streptavidin donor beads forms a complex with the p70 S6 Kinase (T389) 1A5 Monoclonal Antibody that is associated with Alphascreen Protein A acceptor beads. Upon laser light excitation at 680 nm, the donor bead: acceptor bead complex produces a signal that can be measured. Accordingly, the presence of mTOR kinase activity results in an assay signal. In the presence of an mTOR kinase inhibitor, signal strength is reduced.
mTOR enzyme inhibition for a given test compound was expressed as an IC50 value.

T1 sequence (P42345 1362-2549): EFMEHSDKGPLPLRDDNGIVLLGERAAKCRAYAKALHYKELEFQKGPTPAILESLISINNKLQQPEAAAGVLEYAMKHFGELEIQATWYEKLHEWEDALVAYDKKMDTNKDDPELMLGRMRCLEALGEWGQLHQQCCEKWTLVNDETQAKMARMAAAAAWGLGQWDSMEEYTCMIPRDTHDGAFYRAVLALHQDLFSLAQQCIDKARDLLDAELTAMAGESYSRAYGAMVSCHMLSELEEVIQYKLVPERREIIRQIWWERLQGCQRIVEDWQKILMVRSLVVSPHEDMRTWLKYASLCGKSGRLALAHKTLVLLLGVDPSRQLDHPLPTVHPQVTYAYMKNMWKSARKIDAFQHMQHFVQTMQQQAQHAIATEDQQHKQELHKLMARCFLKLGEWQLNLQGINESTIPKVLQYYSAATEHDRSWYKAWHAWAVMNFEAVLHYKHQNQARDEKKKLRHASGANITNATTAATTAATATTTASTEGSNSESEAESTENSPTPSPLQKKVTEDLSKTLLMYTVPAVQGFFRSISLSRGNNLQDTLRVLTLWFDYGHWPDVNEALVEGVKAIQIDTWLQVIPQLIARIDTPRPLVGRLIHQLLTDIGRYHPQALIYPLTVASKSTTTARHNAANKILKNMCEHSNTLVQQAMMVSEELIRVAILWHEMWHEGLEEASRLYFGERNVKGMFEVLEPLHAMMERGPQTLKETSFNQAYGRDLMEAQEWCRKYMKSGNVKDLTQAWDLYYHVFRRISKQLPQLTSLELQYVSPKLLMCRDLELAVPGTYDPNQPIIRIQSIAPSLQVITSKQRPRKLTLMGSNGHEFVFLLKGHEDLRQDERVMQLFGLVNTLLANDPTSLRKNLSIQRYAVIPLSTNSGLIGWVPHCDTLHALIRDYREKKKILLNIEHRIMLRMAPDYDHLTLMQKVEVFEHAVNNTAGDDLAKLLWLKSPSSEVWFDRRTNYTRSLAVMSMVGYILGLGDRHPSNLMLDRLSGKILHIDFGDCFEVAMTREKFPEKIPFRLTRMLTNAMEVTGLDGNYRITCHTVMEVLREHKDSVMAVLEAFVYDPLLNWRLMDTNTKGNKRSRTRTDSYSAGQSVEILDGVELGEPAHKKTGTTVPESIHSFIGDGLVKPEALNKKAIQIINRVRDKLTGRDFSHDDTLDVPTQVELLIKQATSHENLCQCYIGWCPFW

IC50 [nM] | Structure (SMILES)
17.3 | C[C@H]1COCCN1c1cc(C2(S(=O)(=O)c3ccc(F)cc3)CC2)nc(-c2ccc(NC(=O)Nc3ccc(C(F)(F)F)cc3)cc2)n1 [Example 8k, 1-[4-[4-[1-(4-fluorophenyl)sulfonylcyclopropyl]-6-[(3S)-3-methylmorpholin-4-yl]pyrimidin-2-yl]phenyl]-3-[4-(trifluoromethyl)phenyl]urea]
39.6 | C[C@H]1COCCN1c1cc(C2(S(=O)(=O)C3CC3)CC2)nc(-c2ccc(NC(=O)NCC(C)(C)CO)cc2)n1 [Example 3n, 1-[4-[4-(1-cyclopropylsulfonylcyclopropyl)-6-[(3S)-3-methylmorpholin-4-yl]pyrimidin-2-yl]phenyl]-3-(3-hydroxy-2,2-dimethylpropyl)urea]
0.96 | CCNC(=O)Nc1ccc(-c2nc(N3CCOC[C@@H]3C)cc(C3(S(=O)(=O)c4ccc(F)cc4)CC3)n2)cc1 [Example 8a, 1-ethyl-3-[4-[4-[1-(4-fluorophenyl)sulfonylcyclopropyl]-6-[(3S)-3-methylmorpholin-4-yl]pyrimidin-2-yl]phenyl]urea]
61.3 | C[C@H]1COCCN1c1cc(C2(S(=O)(=O)c3ccc(F)cc3)CC2)nc(-c2ccc(NC(=O)NCCN(C)C)cc2)n1 [Example 8g, 3-(2-dimethylaminoethyl)-1-[4-[4-[1-(4-fluorophenyl)sulfonylcyclopropyl]-6-[(3S)-3-methylmorpholin-4-yl]pyrimidin-2-yl]phenyl]urea]

same assay, conditions: table of enzyme assay Test (a)(ii); read-out: Test (a)(ii) IC50

IC50 [nM] | Structure (SMILES)
2.77 | C[C@H]1COCCN1c1cc(C2(S(=O)(=O)c3ccccc3)CC2)nc(-c2ccc(NC(=O)Nc3ccon3)cc2)n1 [Example 36dz, 1-[4-[4-[1-(benzenesulfonyl)cyclopropyl]-6-[(3S)-3-methylmorpholin-4-yl]pyrimidin-2-yl]phenyl]-3-(1,2-oxazol-3-yl)urea]
21.7 | CNC(=O)Nc1ccc(-c2nc(N3CCOC[C@@H]3C)cc(C3(S(C)(=O)=O)CCCC3)n2)cn1 [Example 14o, 3-methyl-1-[5-[4-[(3S)-3-methylmorpholin-4-yl]-6-(1-methylsulfonylcyclopentyl)pyri-midin-2-yl]pyridin-2-yl]urea]
0.25 | Cc1csc(S(=O)(=O)C2(c3cc(N4CCOC[C@@H]4C)nc(-c4ccc(NC(=O)Nc5cnn(C)c5)cc4)n3)CC2)n1 [Example 25m, 1-[4-[4-[(3S)-3-methylmorpholin-4-yl]-6-[1-[(4-methyl-1,3-thiazol-2-yl)sulfonyl]cyclopropyl]pyrimidin-2-yl]phenyl]-3-(1-methylpyrazol-4-yl)urea]
25.9 | C[C@H]1COCCN1c1cc(C2(S(=O)(=O)CCC(C)(C)O)CC2)nc(-c2ccc(NC(=O)Nc3cnn(C)c3)cc2)n1 [Example 79e, 1-[4-[4-[1-(3-hydroxy-3-methylbutyl)sulfonylcyclopropyl]-6-[(3S)-3-methylmorpholin-4-yl]pyrimidin-2-yl]phenyl]-3-(1-methylpyrazol-4-yl)urea]
4.79 | C[C@H]1COCCN1c1cc(C2(S(=O)(=O)c3ccc(NCCO)c(Cl)c3)CC2)nc(-c2ccc(NC(=O)NCCO)cc2)n1 [Example 95i, 1-[4-[4-[1-[3-chloro-4-(2-hydroxyethylamino)phenyl]sulfonylcyclopropyl]-6-[(3S)-3-methylmorpho-lin-4-yl]pyrimidin-2-yl]phenyl]-3-(2-hydroxyethyl)urea]
5.34 | C[C@H]1COCCN1c1cc(C2(S(C)(=O)=O)CCOCC2)nc(-c2ccc(NC(=O)Nc3cnn(C)c3)cc2)n1 [Example 23d, 1-[4-[4-[(3S)-3-methylmorpholin-4-yl]-6-(4-methylsulfonyloxan-4-yl)pyrimidin-2-yl]phenyl]-3-(1-methylpyrazol-4-yl)urea]
39.2 | C[C@H]1COCCN1c1cc(C2(S(=O)(=O)CCCO)CCCC2)nc(-c2ccc(NC(=O)NC3CC3)cc2)n1 [Example 43f, 3-cyclopropyl-1-[4-[4-[1-(3-hydroxypropyl-sulfonyl)cyclopen-tyl]-6-[(3S)-3-methylmorpholin-4-yl]pyrimidin-2-yl]phenyl]urea]
53.2 | CC(C)(CO)NC(=O)Nc1ccc(-c2nc(N3CCOCC3)cc(C3(S(=O)(=O)C4CC4)CCCC3)n2)cc1 [Example 13m, 1-[4-[4-(1-cyclopropylsulfonylcyclopentyl)-6-morpholin-4-ylpyrimidin-2-yl]phenyl]-3-(1-hydroxy-2-methylpropan-2-yl)urea]
15.2 | C[C@H]1COCCN1c1cc(C2(S(=O)(=O)CCCO)CCC2)nc(-c2ccc(NC(=S)NCC(F)F)cc2)n1 [Example 99g, 3-(2,2-difluoroethyl)-1-[4-[4-[1-(3-hydroxypropylsulfonyl)cyclobutyl]-6-[(3S)-3-methylmorpholin-4-yl]pyrimidin-2-yl]phenyl]thiourea]
1.16 | C[C@H]1COCCN1c1cc(C2(S(=O)(=O)c3cncc(F)c3)CC2)nc(-c2ccc(NC(=O)NCCO)cc2)n1 [Example 17, 1-[4-[4-[1-(5-Fluoropyridin-3-yl)sulfonylcyclopropyl]-6-[(3S)-3-methylmorpholin-4-yl]pyrimidin-2-yl]phenyl]-3-(2-hydroxyethyl)urea]
18.5 | Cc1cc(F)ccc1S(=O)(=O)C1(c2cc(N3CCOC[C@@H]3C)nc(-c3ccc(NC(=O)NCCF)cc3)n2)CC1 [Example 82c, 3-(2-fluoroethyl)-1-[4-[4-[1-(4-fluoro-2-methylphenyl)sulfonylcyclopropyl]-6-[(3S)-3-methylmorpholin-4-yl]pyrimidin-2-yl]phenyl]urea]
20.9 | C[C@H]1COCCN1c1cc(C2(S(=O)(=O)CCCOC(F)F)CC2)nc(-c2ccc(NC(=O)Nc3cnn(C)c3)cc2)n1 [Example 96d, 1-[4-[4-[1-[3-(difluoromethoxy)propylsulfonyl]cyclopropyl]-6-[(3S)-3-methylmorpholin-4-yl]pyrimidin-2-yl]phenyl]-3-(1-methylpyrazol-4-yl)urea]
2.05 | C[C@H]1COCCN1c1cc(C2(S(C)(=O)=O)CCC2)nc(-c2ccc(NC(=S)NCCO)cc2)n1 [Example 62, 3-(2-Hydroxyethyl)-1-[4-[4-[(3S)-3-methylmorpholin-4-yl]-6-(1-methylsulfonylcyclobutyl)pyrimidin-2-yl]phenyl]thiourea]
3.27 | C[C@H]1COCCN1c1cc(C2(S(=O)(=O)c3ccccc3F)CC2)nc(-c2ccc(NC(=O)NCCF)cc2)n1 [Example 58c, 3-(2-fluoroethyl)-1-[4-[4-[1-(2-fluorophenyl)sulfonylcyclopropyl]-6-[(3S)-3-methylmorpholin-4-yl]pyrimidin-2-yl]phenyl]urea]
2.64 | Cc1csc(S(=O)(=O)C2(c3cc(N4CCOCC4)nc(-c4ccc(NC(=O)NCCC#N)cc4)n3)CC2)n1 [Example 42f, 3-(2-cyanoethyl)-1-[4-[4-[1-[(4-methyl-1,3-thiazol-2-yl)sulfonyl]cyclopropyl]-6-morpholin-4-ylpyrimidin-2-yl]phenyl]urea]
2.67 | C[C@H]1COCCN1c1cc(C2(S(=O)(=O)c3ccccc3F)CC2)nc(-c2ccc(NC(=O)Nc3cnn(C)c3)cc2)n1 [Example 58f, 1-[4-[4-[1-(2-fluorophenyl)sulfonylcyclopropyl]-6-[(3S)-3-methylmorpholin-4-yl]pyrimidin-2-yl]phenyl]-3-(1-methylpyrazol-4-yl)urea]
78.4 | C[C@H]1COCCN1c1cc(C2(S(=O)(=O)c3ccc(F)cc3)CC2)nc(-c2ccc(NC(=O)NCCN(C)C)cc2)n1 [Example 8g, 3-(2-dimethylaminoethyl)-1-[4-[4-[1-(4-fluorophenyl)sulfonylcyclopropyl]-6-[(3S)-3-methylmorpholin-4-yl]pyrimidin-2-yl]phenyl]urea]
163 | CCNC(=O)Nc1ccc(-c2nc(N3CCOC[C@@H]3C)cc(C3(S(=O)(=O)CCCO)CCOCC3)n2)cc1 [Example 36cb, 1-ethyl-3-[4-[4-[4-(3-hydroxypropylsulfonyl)oxan-4-yl]-6-[(3S)-3-methylmorpholin-4-yl]pyrimidin-2-yl]phenyl]urea]
43.8 | Cc1ccc(F)cc1S(=O)(=O)C1(c2cc(N3CCOC[C@@H]3C)nc(-c3ccc(NC(=O)NCC(F)F)cc3)n2)CC1 [Example 61d, 3-(2,2-difluoroethyl)-1-[4-[4-[1-(5-fluoro-2-methylphenyl)sulfonylcyclopropyl]-6-[(3S)-3-methylmorphohn-4-yl]pyrimidin-2-yl]phenyl]urea]
503 | C[C@H]1COCCN1c1cc(C2(S(=O)(=O)c3cc(F)cc(F)c3)CCN(Cc3ccccc3)CC2)nc(-c2ccc(NC(=O)NC3CC3)cc2)n1 [Example 22, 1-[4-[4-[1-Benzyl-4-(3,5-difluorophenyl)sulfonylpiperidin-4-yl]-6-[(3S)-3-methylmorpholin-4-yl]pyrimidin-2-yl]phenyl]-3-cyclopropylurea]

— patent US20090018134A1, “Compounds - 945” (AstraZeneca AB, priority 2007, published 2009)
